Results from patent US11376228B2 (Genifarm Laboratories Inc, priority 2018, dated 2022).
Read-outs that look alike come from different tables or passages of the source.

Columns and labels:
Type in all cases: cell-based
[1] = system: human ovarian cancer cells SKOV3; assay: MTT assay, proliferation of human ovarian cancer cells SKOV3; conditions: for IC50: Homo sapiens, read-out: IC50 on the proliferation of human ovarian cancer cells SKOV3; for inhibitory effects on human ovarian cancer cells SKOV3 (in words): SKOV3, summary of Table 2; for effect compared with control gossypol I-A9, SKOV3: SKOV3, versus gossypol I-A9
Method: (§1) The original culture medium for human ovarian cancer cells SKOV3 was removed, and human ovarian cancer cells SKOV3 were rinsed with 2 mL of phosphate buffer saline (PBS), digested with 0.5 mL of pancreatic enzyme for 3 min. 2 mL of culture medium was added to the cells and the mixture was transferred to a centrifuge tube. The mixture was centrifuged (200 g) for 5 min. The supernatant was removed. 2 mL of culture medium was sprayed five times to the remaining solution. 0.5 mL of cell suspension was transferred to an Eppendorf (EP) tube and the cells were counted. The cells were cultured on a 96-well plate, each well having 2000 cells, 3 wells for each compound. The numbers of the required cells and wells and the amount of culture medium were calculated. The cells were diluted by the culture medium. 100 μL culture medium was added to each well and were evenly dispersed, each well containing 2000 cells. The cells were transferred to the wells using a pipette, and cultured in an incubator.
(§2) (2) Adding Compounds to Culture Medium
(§3) The original culture medium was discarded, and the mother liquor of each compound was diluted to final concentrations of 0, 1, 2, 4, 8 and 16 μM, respectively. Each diluent was uniformized. To each head of a multichannel pipette, 100 μL of the diluent was introduced. Three heads were employed. The diluents were added to 3 marked wells (the cells were undamaged) of a tilted 96-well plate, respectively. Different concentrations of diluents were added to three different marked wells and evenly mixed by alternately sucking and blowing with the multichannel pipette 3 times. The 96-well plate was shaken slightly twice, and cultured in a CO2 incubator.
(§4) The cells were cultured in different compounds for 48 h and were then detected. Specifically, a clean bench was turned on for 15 min, and phosphate buffer saline (PBS) was pre-heated in a warm water bath for 15 min. MTT was taken out of a refrigerator at −20 degrees, protected from light and thawed (MTT stock solution was 5 mg/mL). MTT and a culture medium were mixed evenly in a V-shaped groove to yield a mixture comprising 500 μg/mL MTT and a culture medium (a volume ratio thereof being 1:10). 100 μL of the prepared MTT mixture was added to each well of the 96-well plate using the multichannel pipette, and then incubated at 37° C. for an appropriate time (1 h), thereby reducing the MTT to formazan (purple crystals formed in the cells under a microscope, which were different in medicated cells and unmedicated cells). The upper liquid was removed with a white pipette tip attached to a vacuum pump. For each concentration of the compounds, 3 pipette tips were employed. After the incubation, the MTT mixture was discarded, and then 100 μL of DMSO was added to each well using the multichannel pipette. The 96-well plate was shaken in a shaker for 10 min (until the purple crystals were dissolved in the cells under the microscope).
(§5) The absorbance value of the resulting solution was detected at a wavelength of 550 nm with a microplate reader. The survival rate of cells treated with different concentrations of drugs was calculated in accordance with the requirements to make a scatter plot. The IC50 results of each compound on the proliferation of human ovarian cancer cells SKOV3 were shown in Table 2, wherein Gossypol I-A9 is a control sample.

[2] = system: human prostate cancer cells PC3; assay: MTT assay, proliferation of human prostate cancer cells PC3; conditions: for IC50: Homo sapiens, 48 h, read-out: IC50 on the proliferation of human prostate cancer cells PC3; for inhibitory effects on human prostate cancer cells PC3 (in words): PC3, summary of Table 4; for effect compared with control gossypol I-A9, PC3: PC3, versus gossypol I-A9
[3] = system: human gastric cancer cells MKN45; assay: MTT assay, proliferation of human gastric cancer cells MKN45; conditions: for IC50: Homo sapiens, read-out: IC50 on the proliferation of human gastric cancer cells MKN45; for inhibitory effects on human gastric cancer cells MKN45 (in words): MKN45, summary of Table 1
Method: as §1, with “gastric” for “ovarian”, “MKN45” for “SKOV3”
as §2
as §3, with “5, 15, 30, 45” for “1, 2, 4, 8”, “60” for “16”
as §4
The absorbance value of the cells was measured at a wavelength of 550 nm with a microplate reader. The survival rate of the cells treated with different concentrations of compounds was calculated to make a scatter plot. The IC50 results of each compound on the proliferation of human gastric cancer cells MKN45 were shown in Table 1, where Gossypol I-A9 is a control sample.

[4] = system: human lung cancer cells A549; assay: MTT assay, proliferation of human lung cancer cells A549; conditions: for IC50: Homo sapiens, read-out: IC50 on the proliferation of human lung cancer cells A5499; for inhibitory effects on human lung cancer cells A549 (in words): A549, summary of Table 3; for effect compared with control gossypol I-A9, A549: A549, versus gossypol I-A9
Method: as §1, with “lung” for “ovarian”, “A549” for “SKOV3”
as §2
as §3, with “5, 10, 20, 30, 60” for “1, 2, 4, 8”, “80” for “16”
as §4
as §5, with “lung” for “ovarian”, “A549” for “SKOV3”, “3, where” for “2, wherein”

[5] = SK-OV-3, SKOV3, MTT, 48 h, 0-16 μM

| SMILES | IC50 [1, 5] | IC50 ([2]; PC3, MTT, 0-32 μM) | inhibitory effects on human ovarian cancer cells SKOV3 (in words) [1] | inhibitory effects on human prostate cancer cells PC3 (in words) [2] | effect compared with control gossypol I-A9, PC3 [2] | also measured |
| --- | --- | --- | --- | --- | --- | --- |
| C#CCOCc1c(C=O)c(O)c(O)c(C)c1-c1ccccc1 [I-A2] | 11.5 µM | 5 µM | significant inhibitory effects | significant inhibitory effects | superior than the gossypol I-A9 |  |
| Cc1cc2c(C(C)C)c(O)c(O)c(C=O)c2c(O)c1-c1c(C)cc2c(C(C)C)c(O)c(O)c(C=O)c2c1O [I-A9, gossypol, reference compound] |  |  |  |  |  | IC50 ([1]; SK-OV-3, 48 h): 9.55 µM; IC50 [2]: 10 µM; IC50 ([4]; A549, 48 h): 18.1 µM; IC50 ([3]; MKN-45, 48 h): 15.4 µM |
| COc1cccc2c(OC)c(Cc3cc(C)c(O)c(O)c3C=O)ccc12 [I-A3] | 6.45 µM | 6.54 µM | significant inhibitory effects | significant inhibitory effects | superior than the gossypol I-A9 | effect compared with control gossypol I-A9, SKOV3 [1]: superior to that of the gossypol I-A9 |
| COc1cc(OC)c(Cc2c(C#Cc3ccccc3)c(C)c(O)c(O)c2C=O)c(OC)c1 [I-A5] | 9.79 µM | 4.19 µM | significant inhibitory effects | significant inhibitory effects | superior than the gossypol I-A9 |  |

Now from value to compound, other results behind:

| IC50 [1, 5] | IC50 ([2]; PC3, MTT, 0-32 μM) | SMILES | inhibitory effects on human ovarian cancer cells SKOV3 (in words) [1] | inhibitory effects on human prostate cancer cells PC3 (in words) [2] | effect compared with control gossypol I-A9, PC3 [2] | also measured |
| --- | --- | --- | --- | --- | --- | --- |
| 5.92 µM | 13.1 µM | COC(=O)c1ccc(-c2c(C)c(O)c(O)c(C=O)c2Cc2c(OC)cc(OC)cc2OC)cc1 [Compound I-49] | significant inhibitory effects | significant inhibitory effects |  | effect compared with control gossypol I-A9, SKOV3 [1]: superior to that of the gossypol I-A9; IC50 ([3]; MKN-45, MKN45, MTT, 48 h, 0-60 μM): 3.12 µM; inhibitory effects on human gastric cancer cells MKN45 (in words) [3]: significant inhibitory effects; effect compared with control gossypol I-A9, MKN45 ([3]; MKN45, versus gossypol I-A9): better than the control gossypol I-A9 |
| ≥ 35 µM |  | COc1cc(OC)c(Cc2cc(C)c(O)c(O)c2CO)c(OC)c1 [Compound I-97] |  |  |  | inhibitory effects on human gastric cancer cells MKN45 (in words) [3]: significant inhibitory effects |
|  | 6.57 µM | Cc1cc(C)cc(-c2c(C)c(O)c(O)c(C=O)c2COCc2ccccc2)c1 [Compound I-45] |  | significant inhibitory effects | superior than the gossypol I-A9 | inhibitory effects on human lung cancer cells A549 (in words) [4]: inhibitory effects; effect compared with control gossypol I-A9, A549 [4]: slightly inferior to that of the Gossypol I-A9; IC50 ([4]; A549, MTT, 48 h, 0-80 μM): 26 µM |
|  | 4.26 µM | COc1ccc(-c2c(C)c(O)c(O)c(C=O)c2COCc2ccccc2)cc1 [Compound I-29] |  | significant inhibitory effects | superior than the gossypol I-A9 | inhibitory effects on human lung cancer cells A549 (in words) [4]: inhibitory effects; effect compared with control gossypol I-A9, A549 [4]: slightly inferior to that of the Gossypol I-A9; IC50 ([4]; A549, MTT, 48 h, 0-80 μM): 42.1 µM |
